Results taken from DBAASP.
≈ marks a conversion by molar mass, not a printed value. One block for each compound: values may come before it.

Tests used:
Assay in all cases: ≥ marks a high value that may be exact or a test limit, other limits are often not marked, values filed in µg/mL are converted to µM
[1] = tested on: Micrococcus luteus NBRC 12708
[2] = tested on: Escherichia coli NBRC 14237
[3] = tested on: Pseudomonas aeruginosa NBRC 12582
[4] = tested on: Staphylococcus aureus NBRC 12732
[5] = tested on: Lactococcus lactis AS1.1690
[6] = tested on: Enterococcus faecalis CGMCC 1.595
[7] = tested on: Enterococcus faecium CGMCC 1.2334
[8] = tested on: Pseudomonas aeruginosa CGMCC 1.860
[9] = tested on: Proteus mirabilis CICC 22931
[10] = tested on: Klebsiella aerogenes CGMCC 1.876
[11] = tested on: Staphylococcus aureus AS1.72
[12] = tested on: Acinetobacter baumannii CICC 22934
[13] = tested on: Klebsiella pneumoniae subsp. pneumoniae CGMCC 1.176
[14] = tested on: Enterobacter cloacae CGMCC 1.58
Escherichia coli AS1.349 = tested on: Escherichia coli AS1.349
Bacillus cereus AS1.126 = tested on: Bacillus cereus AS1.126
[15] = tested on: Pseudomonas aeruginosa Pa1-SA2
[16] = tested on: Pseudomonas aeruginosa ATCC 27853
[17] = tested on: Escherichia coli ATCC 25922
[18] = tested on: Pseudomonas aeruginosa PA006
[19] = tested on: Salmonella enterica subsp. enterica serovar Typhimurium ATCC 14028
[20] = tested on: Klebsiella pneumoniae ATCC 700603
[21] = tested on: Pseudomonas aeruginosa PAO1
[22] = tested on: Staphylococcus aureus ATCC 29313
[23] = tested on: Pseudomonas aeruginosa Pa4-SA2
[24] = tested on: Staphylococcus aureus ATCC 25923
[25] = tested on: Psychrobacter faecalis X29
[26] = tested on: Enterococcus faecalis 981
[27] = tested on: Nocardia asteroides 201118
Candida glabrata 090902 = tested on: Candida glabrata 090902
[28] = tested on: Candida tropicalis CCM 8264
Bacillus cereus = tested on: Bacillus cereus
[29] = tested on: Porphyromonas gingivalis ATCC 33277
[30] = tested on: Pseudomonas syringae pv. actinidiae Psa3700.1.1
[31] = tested on: Xanthomonas campestris pv. Vesicatoria 2133-2
[32] = tested on: Candida albicans CCM 8186
[33] = tested on: Erwinia amylovora PMV 6076
[34] = tested on: Xanthomonas fragariae Xf349-9A
[35] = tested on: Xanthomonas arboricola pv. pruni CFBP 5563
[36] = tested on: Escherichia coli PCM 2057
[37] = tested on: Pseudomonas syringae pv. syringae EPS 94
[38] = tested on: Candida parapsilosis CCM 8260
[39] = tested on: Staphylococcus epidermidis PCM 2118
[40] = tested on: Candida glabrata CCM 8270
[41] = tested on: Fusobacterium nucleatum ATCC 10953
Bacillus subtilis = tested on: Bacillus subtilis
[42] = tested on: Staphylococcus aureus PCM 2054
Candida krusei CCM 8271 = tested on: Candida krusei CCM 8271
[43] = tested on: Pseudomonas aeruginosa PCM 499

Compound: CC[C@H](C)[C@H](NC(=O)[C@@H](N)Cc1ccccc1)C(=O)NCC(=O)N[C@@H](C)C(=O)N[C@@H](CC(C)C)C(=O)N[C@@H](CC(C)C)C(=O)NCC(=O)N1CCC[C@H]1C(=O)N[C@@H](CC(C)C)C(=O)N[C@@H](CC(C)C)C(=O)N[C@@H](CC(N)=O)C(=O)N[C@@H](CC(C)C)C(=O)N[C@@H](CC(C)C)C(=O)N[C@@H](CCCCN)C(N)=O [FIGALLGPLLNLLK]
MIC [1]: 12.5 µM (≈ 18.5 µg/mL) | MIC [2]: ≥ 50 µM | MIC [3]: ≥ 50 µM | MIC [4]: 12.5 µM (≈ 18.5 µg/mL)

Compound: CC[C@H](C)[C@H](NC(=O)[C@H](CC(C)C)NC(=O)CNC(=O)[C@@H]1CCCN1C(=O)[C@H](CC(C)C)NC(=O)[C@@H](N)Cc1ccccc1)C(=O)N[C@@H](CCCCN)C(=O)N[C@@H](C)C(=O)N[C@@H](C)C(=O)N[C@H](C(=O)NCC(=O)N[C@H](C(=O)NCC(=O)N[C@@H](CO)C(=O)N[C@H](C(=O)N[C@H](C(=O)N[C@@H](CC(C)C)C(=O)N[C@H]1CSSC[C@@H](C(=O)O)NC(=O)[C@H](CCCCN)NC(=O)[C@H](CCCCN)NC(=O)[C@H]([C@@H](C)O)NC(=O)[C@H]([C@@H](C)CC)NC(=O)[C@H](CCCCN)NC1=O)[C@@H](C)CC)[C@@H](C)O)C(C)C)C(C)C [FLPGLIKAAVGVGSTILCKITKKC]
MIC [24]: 12.5 µM (≈ 30.7 µg/mL) | MIC [25]: ≥ 50 µM | MIC [26]: 6.3 µM (≈ 15.5 µg/mL) | MIC [27]: 6.3 µM (≈ 15.5 µg/mL) | MIC (Candida glabrata 090902): 12.5 µM (≈ 30.7 µg/mL)

Compound: CC(C)[C@H](NC(=O)[C@H](Cc1c[nH]c2ccccc12)NC(=O)[C@H](Cc1ccccc1)NC(=O)[C@@H](NC(=O)[C@@H](NC(=O)[C@H](CCCCN)NC(=O)[C@@H](N)CCCCN)C(C)C)C(C)C)C(=O)N[C@@H](CCCCN)C(=O)N[C@@H](Cc1ccccc1)C(=O)N[C@@H](CCCCN)C(N)=O [KKVVFWVKFK]
MIC [28]: 1.53 µM (≈ 2 µg/mL) | MIC (Bacillus cereus): ≥ 38.2 µM | MIC [29]: ≥ 95.5 µM | MIC [30]: 2.23 µM (≈ 2.91 µg/mL) | MIC [31]: 8.8 µM (≈ 11.5 µg/mL) | MIC [32]: 5.96 µM (≈ 7.79 µg/mL) | MIC [33]: 8.8 µM (≈ 11.5 µg/mL) | MIC [34]: 4.38 µM (≈ 5.73 µg/mL) | MIC [35]: 1.13 µM (≈ 1.48 µg/mL) | MIC [36]: 5.96 µM (≈ 7.79 µg/mL) | MIC [37]: 8.8 µM (≈ 11.5 µg/mL) | MIC [38]: 1.53 µM (≈ 2 µg/mL) | MIC [39]: 5.96 µM (≈ 7.79 µg/mL) | MIC [40]: 11.9 µM (≈ 15.6 µg/mL) | MIC [41]: 11.9 µM (≈ 15.6 µg/mL) | MIC (Bacillus subtilis): 5.96 µM (≈ 7.79 µg/mL) | MIC [42]: 19.1 µM (≈ 25 µg/mL) | MIC (Candida krusei CCM 8271): 5.96 µM (≈ 7.79 µg/mL) | MIC [43]: 19.1 µM (≈ 25 µg/mL)

Further lines, with some results ahead:

MIC [5]: 3.13 µM (≈ 7.27 µg/mL) | MIC [6]: 3.13 µM (≈ 7.27 µg/mL) | MIC [7]: 3.13 µM (≈ 7.27 µg/mL) | MIC [8]: ≥ 100 µM | MIC [9]: ≥ 100 µM | MIC [10]: ≥ 100 µM | MIC [11]: 2.34 µM (≈ 5.44 µg/mL) | MIC [12]: ≥ 100 µM | MIC [13]: ≥ 100 µM | MIC [14]: ≥ 100 µM | MIC (Escherichia coli AS1.349): ≥ 100 µM | MIC (Bacillus cereus AS1.126): 1.56 µM (≈ 3.63 µg/mL)
Compound: CC(C)C[C@H](NC(=O)[C@H](CCCCN)NC(=O)[C@H](CCCN=C(N)N)NC(=O)[C@H](Cc1cnc[nH]1)NC(=O)[C@H](C)NC(=O)[C@H](CCCN=C(N)N)NC(=O)[C@H](Cc1cnc[nH]1)NC(=O)[C@H](CC(C)C)NC(=O)[C@H](Cc1ccccc1)NC(=O)[C@H](CCCN=C(N)N)NC(=O)[C@H](CCCN=C(N)N)NC(=O)[C@H](CC(C)C)NC(=O)[C@H](Cc1cnc[nH]1)NC(=O)[C@H](CCCN=C(N)N)NC(=O)[C@H](CC(C)C)NC(=O)[C@@H](NC(=O)[C@H](CCCCN)NC(=O)[C@@H](N)CO)C(C)C)C(=O)O [SKVLRHLRRFLHRAHRKL]

MIC [15]: ≥ 50.6 µM | MIC [16]: > 202 µM | MIC [17]: 316 µM (≈ 800 µg/mL) | MIC [18]: 6.32 µM (≈ 16 µg/mL) | MIC [19]: > 316 µM | MIC [20]: > 316 µM | MIC [21]: 202 µM (≈ 512 µg/mL) | MIC [23]: 25.3 µM (≈ 64 µg/mL)
Compound: CC[C@H](C)[C@H](NC(=O)[C@H](C)NC(=O)[C@H](Cc1cnc[nH]1)NC(=O)[C@H](C)NC(=O)[C@@H](NC(=O)[C@H](CC(C)C)NC(=O)[C@H](CC(=O)O)NC(=O)[C@H](CCCCN)NC(=O)CNC(=O)[C@H](C)NC(=O)CNC(=O)[C@H](CCCCN)NC(=O)[C@@H](NC(=O)[C@@H](NC(=O)[C@H](CC(=O)O)NC(=O)[C@@H](NC(=O)[C@@H](NC(=O)CN)C(C)C)[C@@H](C)CC)[C@@H](C)CC)[C@@H](C)CC)[C@@H](C)CC)C(=O)NCC(=O)N[C@@H](CCCCN)C(=O)N[C@@H](CC(C)C)C(=O)N[C@@H](C)C(=O)N[C@@H](CCC(=O)O)C(=O)N[C@@H](CCCCN)C(=O)N[C@H](C(N)=O)C(C)C [GVIDIIKGAGKDLIAHAIGKLAEKV]
MIC [22]: ≥ 316 µM
